ChEMBL document CHEMBL6121011, “An oxidation-reduction-triggered thiamine disulfide-based prodrug of 10-hydroxycamptothecin for selective tumor cell locking and therapeutic delivery” (Eur J Med Chem, 2025)
Calls of active or inactive are those of the source. No cut-off for these calls is given here.

Columns and labels:
[1] = Drug internalization in mouse 4T1 cells assessed as green fluorescence in cytoplasm at 20 uM measured after 1 hr by CLSM analysis; format: ADME, cell-based; conditions: 4t1, 1 h
[2] = Prodrug release in mouse 4T1 cells assessed as Nap release at 20 uM measured after 2 hrs by confocal microscopy; format: ADME, cell-based; conditions: 4t1, 2 h
[3] = Drug localization in cytoplasm of mouse 4T1 cells at 20 uM measured after 2 hrs by CLSM analysis; format: ADME, subcellular; conditions: 4t1, 2 h
[4] = Prodrug stability in 5 uM to 5 mM GSH assessed as compound remaining at 20 uM measured for 24 hrs by RP-HPLC analysis; format: ADME
[5] = Cytotoxicity against human MCF-10A cells assessed as cell viability at 5 to 50 uM incubated for 24 hrs by CCK8 assay relative to control; format: toxicity, cell-based; conditions: dose 5-50 µM, read-out: Activity
[6] = Prodrug release in human MDA-MB-231 cells assessed as Nap release at 20 uM measured after 2 hrs by confocal microscopy; format: ADME, cell-based; conditions: mda-mb-231, 2 h
[7] = Drug localization in mitochondria of mouse 4T1 cells at 20 uM measured after 2 hrs by flow cytometry; format: ADME; conditions: 4t1, 2 h
[8] = Drug internalization in mouse 4T1 cells assessed as green fluorescence in cytoplasm at 20 uM measured after 2 hrs by CLSM analysis; format: ADME, cell-based; conditions: 4t1, 2 h
[9] = Drug internalization in mouse 4T1 cells assessed as green fluorescence in cytoplasm at 20 uM measured after 8 hrs by CLSM analysis; format: ADME, cell-based; conditions: 4t1, 8 h
4T1 [10] = test: Cytotoxicity against mouse 4T1 cells assessed as cell viability at 5 to 50 uM incubated for 24 hrs by CCK8 assay relative to control; format: functional; conditions: dose 5-50 µM
[11] = Drug internalization in mouse 4T1 cells assessed as fold change in green fluorescence in cytoplasm at 20 uM measured after 8 hrs by flow cytometry relative to K-Nap; format: ADME, cell-based; conditions: 4t1, 8 h
[12] = Prodrug release in human MCF7 cells assessed as Nap release at 20 uM measured after 2 hrs by confocal microscopy; format: ADME, cell-based; conditions: mcf7, 2 h
[13] = Drug internalization in mouse 4T1 cells assessed as fold change in green fluorescence in cytoplasm at 20 uM measured after 8 hrs by flow cytometry relative to TD-Nap; format: ADME, cell-based; conditions: 4t1, 8 h
[14] = Drug localization in mitochondria of mouse 4T1 cells at 20 uM measured after 2 hrs by CLSM analysis; format: ADME; conditions: 4t1, 2 h
4T1 [15] = test: Induction of intracellular ROS generation in mouse 4T1 cells assessed as fold increase in DCF fluorescence at 0.5 uM incubated for 24 hrs by DCFH-DA probe based CLSM analysis relative to control; format: functional
[16] = Prodrug release in human MCF-10A cells assessed as Nap release at 20 uM measured after 2 hrs by confocal microscopy; format: ADME, cell-based
MCF7 = test: Antiproliferative activity against human MCF7 cells incubated for 48 hrs by CCK8 assay; format: functional, cell-based; conditions: MCF7, 48 h
HepG2 = test: Antiproliferative activity against human HepG2 cells incubated for 48 hrs by CCK8 assay; format: functional, cell-based; conditions: HepG2, 48 h
PC-3 = test: Antiproliferative activity against human PC-3 cells incubated for 48 hrs by CCK8 assay; format: functional, cell-based; conditions: PC-3, 48 h
4T1 [17] = test: Antiproliferative activity against mouse 4T1 cells incubated for 48 hrs by CCK8 assay; format: functional, cell-based; conditions: 4T1, 48 h
MDA-MB-231 = test: Antiproliferative activity against human MDA-MB-231 cells incubated for 48 hrs by CCK8 assay; format: functional, cell-based; conditions: MDA-MB-231, 48 h
[18] = Antiproliferative activity against human MCF-10A cells incubated for 48 hrs by CCK8 assay; format: toxicity, cell-based
U-87 MG = test: Antiproliferative activity against human U-87 MG cells incubated for 48 hrs by CCK8 assay; format: functional, cell-based, U-87MG ATCC
4T1 [19] = test: Induction of mitochondrial damage in mouse 4T1 cells assessed as increase in green fluorescence at 0.5 uM incubated for 24 hrs by JC-1 staining based CLSM analysis; format: functional, cell-based
[20] = Toxicity in BALB/c mouse implanted with mouse 4T1 cells assessed as animal death administered intravenously once every two days at equivalent dose of 10 mg/kg of HCPT for 14 days; format: organism-based; conditions: in vivo, iv, 336 h, time 14 day
[21] = Toxicity in BALB/c mouse implanted with mouse 4T1 cells assessed as body weight loss administered intravenously once every two days at equivalent dose of 10 mg/kg of HCPT for 14 days; format: organism-based; conditions: in vivo, iv, 336 h, time 14 day
4T1 [22] = test: Anti-metastatic activity in mouse 4T1 cells assessed as wound closure at 0.5 uM incubated for 24 hrs by scratch-wound assay (reference value: 42 %); format: functional
[23] = Toxicity in BALB/c mouse implanted with mouse 4T1 cells assessed as damage in major organ tissues administered intravenously once every two days at equivalent dose of 10 mg/kg of HCPT for 14 days; format: organism-based; conditions: in vivo, iv, 336 h, time 14 day
4T1 [24] = test: Induction of intracellular ROS generation in mouse 4T1 cells at 0.5 uM incubated for 24 hrs by DCFH-DA probe based CLSM analysis; format: functional, cell-based
4T1 [25] = test: Antitumor activity against mouse 4T1 cells implanted in BALB/c mouse assessed as tumor growth inhibition administered intravenously once every two days at equivalent dose of 10 mg/kg of HCPT for 14 days; format: functional, organism-based; conditions: route iv, time 14.0 day
4T1 [26] = test: Antitumor activity against mouse 4T1 cells implanted in BALB/c mouse assessed as tumor growth inhibition at 10 mg/kg, iv once every two days for 14 days; format: functional, organism-based; conditions: time 14.0 day
[27] = Toxicity in BALB/c mouse implanted with mouse 4T1 cells assessed as animal death at 10 mg/kg, iv once every two days measured for 9 to 10 days; format: organism-based; conditions: in vivo, time 9-10 day
[28] = Cmax in Sprague-Dawley rat at 10 mg/kg, iv by HPLC-MS analysis; format: ADME, organism-based; conditions: in vivo
[29] = AUC in Sprague-Dawley rat at 10 mg/kg, iv by HPLC-MS analysis; format: ADME, organism-based; conditions: in vivo
[30] = AUC in Sprague-Dawley rat assessed as fold change at 24 mg/kg, iv by HPLC-MS analysis relative to HCPT; format: ADME, organism-based; conditions: in vivo
[31] = Prodrug stability in 100 mM H2O2 assessed as compound remaining at 18 uM measured after 2 hrs by RP-HPLC analysis; format: ADME
[32] = Prodrug stability in 5 mM GSH assessed as compound remaining at 18 uM measured after 12 hrs by RP-HPLC analysis; format: ADME
[33] = Prodrug stability in 10 mM H2O2 assessed as compound remaining at 18 uM measured after 12 hrs by RP-HPLC analysis; format: ADME
[34] = Cmax in Sprague-Dawley rat assessed as fold change at 24 mg/kg, iv by HPLC-MS analysis relative to HCPT; format: ADME, organism-based; conditions: in vivo
[35] = Terminal elimination half life in Sprague-Dawley rat at 24 mg/kg, iv by HPLC-MS analysis; format: ADME, organism-based; conditions: in vivo, read-out: LambdaZ (converted)
4T1 [36] = test: Antitumor activity against mouse 4T1 cells implanted in BALB/c mouse assessed as reduction in tumor size administered intravenously once every two days at equivalent dose of 10 mg/kg of HCPT for 14 days; format: functional, organism-based; conditions: route iv, time 14.0 day
4T1 [37] = test: Antitumor activity against mouse 4T1 cells implanted in BALB/c mouse assessed as reduction in tumor weight administered intravenously once every two days at equivalent dose of 10 mg/kg of HCPT for 14 days; format: functional, organism-based; conditions: route iv, time 14.0 day
4T1 [38] = test: Antitumor activity against mouse 4T1 cells implanted in BALB/c mouse assessed as increase in pyknotic cells with highly condensed nuclei administered intravenously once every two days at equivalent dose of 10 mg/kg of HCPT for 14 days by H and E staining based analysis; format: functional, organism-based; conditions: route iv, time 14.0 day
[39] = Cmax in Sprague-Dawley rat at 24 mg/kg, iv by HPLC-MS analysis; format: ADME, organism-based; conditions: in vivo
[40] = AUC in Sprague-Dawley rat at 24 mg/kg, iv by HPLC-MS analysis; format: ADME, organism-based; conditions: in vivo
[41] = Prodrug stability in 5 uM GSH assessed as compound remaining at 18 uM measured after 24 hrs by RP-HPLC analysis; format: ADME

Compound	Drug uptake [1]	Drug uptake [3]	Drug uptake [9]	Drug uptake [14]	IC50 (MCF7)	IC50 (HepG2)	IC50 (PC-3)	IC50 (4T1 [17])	IC50 (MDA-MB-231)	IC50 at 48 h [18]	IC50 (U-87 MG)	Activity (4T1 [19])	Activity [20]	Activity [21]	Activity (4T1 [22])	Activity [23]	Activity (4T1 [24])	inhibition (4T1 [25])	other results
CCCN1C(=O)c2cccc3c(OC(=O)CCCSC(C)(C)SCCCC(=O)OCC/C(SSCC(C)C)=C(\C)N(C)C=O)ccc(c23)C1=O	Active	Active	Active	Active	–	–	–	–	–	–	–	–	–	–	–	–	–	–	Drug metabolism [2]: metabolite_detected; Stability [4]: Stable; viability at 24 h, 50 µM [5]: > 90%; Drug metabolism [6]: metabolite_detected; Drug uptake [7]: Active; Drug uptake [8]: Active; Activity (4T1 [10]): >90%; fold change (FC) [11]: ~ 2; Drug metabolism [12]: metabolite_detected; fold change (FC) [13]: ~ 2; fold change (FC) (4T1 [15]): ~6.5; Drug metabolism [16]: metabolite_notdetected
C/C(=C(\CCOC(=O)CCCSC(C)(C)SCCCC(=O)O)SSCC(C)C)N(C)C=O	–	–	–	–	> 100 µM	> 100 µM	> 100 µM	> 100 µM	> 100 µM	> 100 µM	> 100 µM	–	–	–	–	–	–	–	–
CC[C@@]1(O)C(=O)OCc2c1cc1n(c2=O)Cc2cc3cc(OC(=O)CCC(=O)OCC/C(SSCC(C)C)=C(\C)N(C)C=O)ccc3nc2-1	–	–	–	–	7.32 µM	5.32 µM	3.45 µM	5.34 µM	10.4 µM	10.5 µM	5.48 µM	Active	Non-toxic	Non-toxic	~25%	Non-toxic	inactive	Active; Moderate Effect Observed	–
CCOC(=O)CCCSC(C)(C)SCCCC(=O)Oc1ccc2nc3c(cc2c1)Cn1c-3cc2c(c1=O)COC(=O)[C@]2(O)CC	–	–	–	–	4.21 µM	1.47 µM	1.93 µM	3.78 µM	7.02 µM	20.7 µM	6.24 µM	Active	Non-toxic	Non-toxic	~34%	Non-toxic	inactive	Active; Moderate Effect Observed	–
CCCN1C(=O)c2cccc3c(OC(=O)CCC(=O)OCC/C(SSCC(C)C)=C(\C)N(C)C=O)ccc(c23)C1=O	Active	Active	Not_active	Active	–	–	–	–	–	–	–	–	–	–	–	–	–	–	–
CC[C@@]1(O)C(=O)OCc2c1cc1n(c2=O)Cc2cc3cc(O)ccc3nc2-1 [HYDROXYCAMPTOTHECIN]	–	–	–	–	1.09 µM	0.95 µM	1.46 µM	1.71 µM	3.12 µM	3.17 µM	2.43 µM	Active; Moderate Activity Observed	–	–	~34%	–	Active; Moderate Elevations Observed	–	inhibition (4T1 [26]): Active; Moderate Effect Observed; Activity [27]: Toxic; Cmax [28]: 1950 ng/mL; AUC [29]: 1020 ng·h/mL
CCCN1C(=O)c2cccc3c(OC(=O)CCCSC(C)(C)SCCCC(=O)OCC)ccc(c23)C1=O	Active	Active	Active	Active	–	–	–	–	–	–	–	–	–	–	–	–	–	–	Drug uptake [8]: Active
CC[C@@]1(O)C(=O)OCc2c1cc1n(c2=O)Cc2cc3cc(OC(=O)CCCSC(C)(C)SCCCC(=O)OCC/C(SSCC(C)C)=C(\C)N(C)C=O)ccc3nc2-1	–	–	–	–	1.02 µM	1.01 µM	1.39 µM	0.96 µM	5.43 µM	33.3 µM	4.05 µM	Active; Most Potential Among Tested Compounds	Non-toxic	Non-toxic	11%	Non-toxic	–	Active; Most Pronounced Effect Observed Among Tested Compounds	fold change (FC) [30]: 2; Stability [31]: Unstable; Stability [32]: <= 10%; Stability [33]: < 12%; fold change (FC) [34]: 4; half-life [35]: 3.24 h; Activity (4T1 [36]): Active; Exhibited Smallest Tumor Among Tested Compounds; Activity (4T1 [37]): Active; Lowest Tumor Weigth Observed Among Tested Compounds; Activity (4T1 [38]): Active; Cmax [39]: 7450 ng/mL; AUC [40]: 2720 ng·h/mL; Stability [41]: 84.8%
